Test results from ChEMBL document CHEMBL1201862, “PubChem BioAssay data set” (2004).
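All cell lines were grown in 96-well plates and treated with compound for 48 hours. GI50 is the concentration that inhibits growth by half.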 The source made the active and inactive calls. Cut-off read from the data, not from the text of the source: active = GI50 up to about 1.1 µM and inactive = higher.

Legend:
Experiment in all cases: inhibition of tumour cell growth, NCI panel, 48 h
786-0 = test system: 786-0
EKVX = test system: EKVX
SF-295 = test system: SF-295
SK-MEL-2 = test system: SK-MEL-2
K562 = test system: K562
TK-10 = test system: TK-10
CAKI-1 = test system: CAKI-1
A498 = test system: A498
NCI-H226 = test system: NCI-H226
HL-60 = test system: HL-60
SK-MEL-28 = test system: SK-MEL-28
SW-620 = test system: SW-620
HCC 2998 = test system: HCC 2998
OVCAR-3 = test system: OVCAR-3
SN12C = test system: SN12C
SNB-19 = test system: SNB-19
SF-268 = test system: SF-268

Compound	GI50 (786-0)	GI50 (EKVX)	GI50 (SF-295)	GI50 (SK-MEL-2)	GI50 (K562)	GI50 (TK-10)	GI50 (CAKI-1)	GI50 (A498)	GI50 (NCI-H226)	GI50 (HL-60)	GI50 (SK-MEL-28)	GI50 (SW-620)	GI50 (HCC 2998)	GI50 (OVCAR-3)	GI50 (SN12C)	GI50 (SNB-19)	GI50 (SF-268)
O=C1CC(c2c[nH]c3ccccc23)C(=O)N1 (configuration not stated)	> 100 µM (inactive)	> 100 µM (inactive)	> 100 µM (inactive)	> 100 µM (inactive)	> 100 µM (inactive)	> 100 µM (inactive)	> 100 µM (inactive)	> 100 µM (inactive)	> 100 µM (inactive)	> 100 µM (inactive)	> 100 µM (inactive)	> 100 µM (inactive)	> 100 µM (inactive)	> 100 µM (inactive)	–	–	–
C/C(CN1C(=O)c2ccccc2C1=O)=N\NS(=O)(=O)c1ccc(Cl)cc1	> 100 µM (inactive)	> 100 µM (inactive)	> 100 µM (inactive)	> 100 µM (inactive)	> 100 µM (inactive)	> 100 µM (inactive)	> 100 µM (inactive)	> 100 µM (inactive)	> 100 µM (inactive)	> 100 µM (inactive)	–	> 100 µM (inactive)	> 100 µM (inactive)	> 100 µM (inactive)	18.8 µM (inactive)	> 100 µM (inactive)	–
COc1cccc2cc(C)c(C(=O)c3ccccc3)nc12	> 100 µM (inactive)	> 100 µM (inactive)	> 100 µM (inactive)	> 100 µM (inactive)	> 100 µM (inactive)	> 100 µM (inactive)	> 100 µM (inactive)	–	> 100 µM (inactive)	–	> 100 µM (inactive)	> 100 µM (inactive)	> 100 µM (inactive)	> 100 µM (inactive)	> 100 µM (inactive)	> 100 µM (inactive)	> 100 µM (inactive)
COC(=O)c1cc(=O)nc2cc3cccccc3n12	> 100 µM (inactive)	> 100 µM (inactive)	> 100 µM (inactive)	–	> 100 µM (inactive)	> 100 µM (inactive)	–	> 100 µM (inactive)	> 100 µM (inactive)	> 100 µM (inactive)	> 100 µM (inactive)	> 100 µM (inactive)	> 100 µM (inactive)	> 100 µM (inactive)	> 100 µM (inactive)	> 100 µM (inactive)	–
C[C@]12CC/C(=N\O)C=C1CC[C@@H]1C2CC[C@@]2(C)C1CC[C@@H]2OC1CCCCO1 (some centres not stated)	17.7 µM (inactive)	17.7 µM (inactive)	18.5 µM (inactive)	16.7 µM (inactive)	19 µM (inactive)	22.8 µM (inactive)	> 10 µM (inactive)	> 100 µM (inactive)	–	–	22.7 µM (inactive)	18.1 µM (inactive)	15.4 µM (inactive)	16.9 µM (inactive)	> 10 µM (inactive)	18.3 µM (inactive)	23.3 µM (inactive)
COC(=O)/C(=N\Nc1nc(S)nn1N)C(C#N)c1ccc(Cl)cc1 (configuration not stated)	> 100 µM (inactive)	> 100 µM (inactive)	> 100 µM (inactive)	> 100 µM (inactive)	–	> 100 µM (inactive)	> 100 µM (inactive)	> 100 µM (inactive)	> 100 µM (inactive)	–	> 100 µM (inactive)	> 100 µM (inactive)	> 100 µM (inactive)	> 100 µM (inactive)	> 100 µM (inactive)	> 100 µM (inactive)	> 100 µM (inactive)
N/N=c1/nc2n(c3ncccc13)C=CNN2	> 100 µM (inactive)	> 100 µM (inactive)	> 100 µM (inactive)	> 100 µM (inactive)	> 100 µM (inactive)	> 100 µM (inactive)	> 100 µM (inactive)	–	> 100 µM (inactive)	> 100 µM (inactive)	> 100 µM (inactive)	> 100 µM (inactive)	> 100 µM (inactive)	> 100 µM (inactive)	> 100 µM (inactive)	> 100 µM (inactive)	> 100 µM (inactive)
Cc1cc(C)nc(NS(=O)(=O)c2ccc(Nc3c4ccccc4nc4c(C(=O)NCCN(C)C)ccc(Cl)c34)cc2)n1	3.73 µM (inactive)	4.4 µM (inactive)	1.45 µM (inactive)	3.61 µM (inactive)	1.14 µM (inactive)	5.07 µM (inactive)	–	–	0.7 µM (active)	1.44 µM (inactive)	5.4 µM (inactive)	0.679 µM (active)	13.8 µM (inactive)	7.64 µM (inactive)	1.45 µM (inactive)	1.45 µM (inactive)	1.51 µM (inactive)
COCC1C(=O)c2cc3c(cc2C12C=CC1(C=C2)OCCO1)OCO3 (configuration not stated)	2.13 µM (inactive)	16.6 µM (inactive)	14.4 µM (inactive)	11.7 µM (inactive)	2 µM (inactive)	20.6 µM (inactive)	15.9 µM (inactive)	–	10.9 µM (inactive)	2.09 µM (inactive)	14.5 µM (inactive)	2.48 µM (inactive)	–	13.7 µM (inactive)	10.9 µM (inactive)	–	3.86 µM (inactive)
COC(=O)/C(C#N)=C1\CCC(Nc2cccc(C(F)(F)F)c2)N1C (configuration not stated)	> 100 µM (inactive)	> 100 µM (inactive)	> 100 µM (inactive)	> 100 µM (inactive)	45.8 µM (inactive)	> 100 µM (inactive)	> 100 µM (inactive)	–	> 100 µM (inactive)	61.7 µM (inactive)	> 100 µM (inactive)	> 100 µM (inactive)	> 100 µM (inactive)	> 100 µM (inactive)	> 100 µM (inactive)	> 100 µM (inactive)	> 100 µM (inactive)
COc1c(C)cc2c(c1O)C1C3[C@H]4SC[C@@]5(NCCC6=C5NC5C=CC=CC65)C(=O)OCC(c5c6c(c(C)c(OC(C)=O)c54)OCO6)N3[C@@H](O)C(C2)N1C (some centres not stated)	< 0.01 µM (active)	0.0297 µM (active)	< 0.01 µM (active)	< 0.01 µM (active)	< 0.01 µM (active)	< 0.01 µM (active)	–	< 0.01 µM (active)	0.0112 µM (active)	< 0.01 µM (active)	0.0134 µM (active)	< 0.01 µM (active)	< 0.01 µM (active)	< 0.01 µM (active)	< 0.01 µM (active)	< 0.01 µM (active)	< 0.01 µM (active)
Cc1cc(Br)cc(C)c1NC(=O)C(=O)C(C(=O)c1ccncc1)C1OC(=O)c2ccccc21 (configuration not stated)	> 100 µM (inactive)	> 100 µM (inactive)	–	–	> 100 µM (inactive)	> 100 µM (inactive)	> 100 µM (inactive)	> 100 µM (inactive)	> 100 µM (inactive)	> 100 µM (inactive)	–	> 100 µM (inactive)	> 100 µM (inactive)	> 100 µM (inactive)	> 100 µM (inactive)	> 100 µM (inactive)	> 100 µM (inactive)
CCCCCCC(=O)OC[n+]1ccc2c(C)c3[nH]c4ccccc4c3c(C)c2c1	0.418 µM (active)	0.403 µM (active)	0.836 µM (active)	5.38 µM (inactive)	–	3.13 µM (inactive)	1.58 µM (inactive)	1.01 µM (active)	1.46 µM (inactive)	2.23 µM (inactive)	1.56 µM (inactive)	0.31 µM (active)	0.826 µM (active)	1.21 µM (inactive)	0.404 µM (active)	–	0.61 µM (active)
COCN1COCN(C)C1=O	> 100 µM (inactive)	> 100 µM (inactive)	> 100 µM (inactive)	> 100 µM (inactive)	> 100 µM (inactive)	> 100 µM (inactive)	> 100 µM (inactive)	> 100 µM (inactive)	> 100 µM (inactive)	–	> 100 µM (inactive)	> 100 µM (inactive)	> 100 µM (inactive)	> 100 µM (inactive)	> 100 µM (inactive)	> 100 µM (inactive)	> 100 µM (inactive)
C[C@@H](NC1CCC[C@@H]1O)c1ccccc1 (some centres not stated)	> 100 µM (inactive)	> 100 µM (inactive)	> 100 µM (inactive)	> 100 µM (inactive)	> 100 µM (inactive)	> 100 µM (inactive)	> 100 µM (inactive)	–	> 100 µM (inactive)	> 100 µM (inactive)	> 100 µM (inactive)	> 100 µM (inactive)	> 100 µM (inactive)	> 100 µM (inactive)	> 100 µM (inactive)	> 100 µM (inactive)	–
CCCCCCCCCC(=O)NC(Cc1ccc(O)cc1)C(=O)NCCCNCCCCNCCCNC(=O)[C@@H](N)CCCN=C(N)N (some centres not stated)	61.7 µM (inactive)	30.1 µM (inactive)	29 µM (inactive)	–	29.9 µM (inactive)	46.9 µM (inactive)	–	–	61.2 µM (inactive)	16.2 µM (inactive)	19.2 µM (inactive)	> 100 µM (inactive)	27.7 µM (inactive)	> 100 µM (inactive)	60.7 µM (inactive)	70.1 µM (inactive)	82.2 µM (inactive)
CSc1c([S+](C)[O-])[nH]c2cc(Br)cc(Br)c12 (configuration not stated)	16 µM (inactive)	14.3 µM (inactive)	17.1 µM (inactive)	–	24.2 µM (inactive)	27.8 µM (inactive)	25.1 µM (inactive)	22.1 µM (inactive)	27.4 µM (inactive)	21.3 µM (inactive)	20.7 µM (inactive)	32.8 µM (inactive)	18.3 µM (inactive)	20.6 µM (inactive)	16.7 µM (inactive)	–	–
CC(=O)Oc1ccc(O)c(O)c1C/C=C(\C)CC/C=C(\C)CC/C=C(\C)CCC=C(C)C [TETRAPRENYLPHENOLSUILLIN]	1.1 µM (active)	1.55 µM (inactive)	0.746 µM (active)	1.16 µM (inactive)	–	1.32 µM (inactive)	2.65 µM (inactive)	–	0.692 µM (active)	1.39 µM (inactive)	0.656 µM (active)	0.3 µM (active)	0.871 µM (active)	–	0.272 µM (active)	0.424 µM (active)	0.446 µM (active)
